The nature of series [1]: Cell viability / cytotoxicity by MTT method. It counts as cell-based. The conditions noted are these: human. On the procedure: (§1) The inhibition of HCV by all synthesized quercetin derivatives was evaluated following a previously reported procedure. All newly synthesized compounds were tested in authentic HCV infection/replication system in the human hepatoma cell lines Huh7.5.1 using mycophenolic acid (MPA) as control compound. The cytotoxicity effect of the test compounds was also evaluated in the same cell line by MTT method. Antiviral effect and cytotoxicity effect were summarized as EC50 and CC50 respectively, as well as the selective index (SI) which is the ratio of CC50 to EC50. The stability of quercetin-3-O-ester compounds were also tested in the same buffer as the antiviral activity assay at 37 °C and the hydrolysate was measured by HPLC.
After the EGFP signal was read, cell viability was measured in the same plate by the MTT [3-(4,5-dimethylthiazol-2-yl)-2,5-diphenyltetrazolium bromide; Sigma-Aldrich, St. Louis, MO, USA] method. Briefly, MTT (1 mg/mL) was dissolved in PBS. Cell culture supernatants were removed and replaced with MTT and further cultured for 4 h; cells were then lysed with 10% sodium dodecyl sulfate (SDS), 50% N,N-dimethylformamide, pH 7.2. OD570 values were read. The percentage of cell death was calculated against the control well without compounds.

Series [2] has as its system HCV infectious virus J399EM. The series is described as follows: Anti-HCV assay in authentic HCV infection/replication system (J399EM EGFP reporter virus) in Huh7.5.1 cells. It counts as cell-based, hepatitis C virus (JFH1-derived, genotype 2a). The conditions noted are these: for EC50: Hepatitis C virus, Huh-7.5.1, 72 h; for SI (selectivity index): ratio of CC50 to EC50, Huh7.5.1 cells. On the procedure:
as §1
The biological assays were performed following a previously reported procedure. The Huh7.5.1 cell line and the HCV infectious virus J399EM were kindly provided by Xin-Wen Chen, Wuhan Institute of Virology, Chinese Academy of Sciences. Huh7.5.1 cells were cultured in Dulbecco’s modified Eagle’s medium (DMEM) containing 10% (v/v) fetal bovine serum, 0.5 mg/mL G418, 100 IU/mL penicillin, and […].
J399EM is an infectious HCV virus derived from the JFH1 virus (genotype 2a) by insertion of enhanced green fluorescent protein (EGFP) into the HCV NS5A region. The establishment of the infectious J399EM HCV virus has been described previously. J399EM was propagated in Huh7.5.1 cells. Briefly, Huh7.5.1 cells were infected with J399EM at MOI = 0.1 and cultured for 4 days. Culture supernatant was collected and filtered through a 0.45 μm membrane and stored at −80 °C as virus stock. Virus titer was tested in Huh7.5.1 cells. Stocks were serially diluted, and the foci forming units (FFU) were determined as the number of fluorescent colonies formed in infected Huh7.5.1.
All the compounds were first dissolved in DMSO at 50 mM, and then diluted to various concentrations (50 μM, 25 μM, 12.5 μM, 6.3 μM and 3.1 μM). Approximately 1 × 10^4 Huh7.5.1 cells per well were plated in an opaque 96-well tissue culture plate (Costar 3904). The next day, the medium was replaced by J399EM virus at an MOI of 0.3. Four hours later, the virus inoculum was removed and medium containing different concentrations of compounds was added. After an additional 72 h of incubation, the culture medium was removed and the EGFP autofluorescence was measured by using a […] with excitation at 488 nm and emission at 516 nm. Compounds and controls were performed in duplicate and each experiment repeated independently at least twice.

The structures appear in SMILES notation. Read-outs that look alike come from different tables or passages of the source.

For the molecule `N#Cc1ccccc1C(=O)Oc1c(-c2ccc(O)c(O)c2)oc2cc(O)cc(O)c2c1=O` [Compound 4e, 2-(3,4-Dihydroxyphenyl)-5,7-dihydroxy-4-oxo-4H-chromen-3-yl 2-cyanobenzoate], the melting point lay within 196 to 197 °C. In addition, in series [1], the CC50 is above 50 µM. Further, in series [2], it took 20.2 ± 8.6 µM to reach a half-maximal effect (EC50) and the “SI (selectivity index)” value is reported as above 2.5.

On to `COc1ccc(C(=O)Oc2c(-c3ccc(O)c(O)c3)oc3cc(O)cc(O)c3c2=O)cc1` [Compound 4m, 2-(3,4-Dihydroxyphenyl)-5,7-dihydroxy-4-oxo-4H-chromen-3-yl 4-methoxybenzoate], for which the melting point was 194 to 195 °C. In series [1], this molecule came in with a CC50 of 33.9 ± 3.7 µM. Moreover, in series [2], the EC50 amounted to 13.6 ± 2.1 µM and the “SI (selectivity index)” value is 2.5.

With `Cc1cccc(COc2cc(O)c3c(=O)c(O)c(-c4ccc(O)c(O)c4)oc3c2)c1` [Compound 3k, 2-(3,4-Dihydroxyphenyl)-3,5-dihydroxy-7-((3-methylbenzyl)oxy)-4H-chromen-4-one], the melting point was in the range of 224 to 226 °C. Moreover, the CC50 in series [1] is 32.5 ± 0.7 µM. In series [2], the EC50 amounted to 4.7 ± 0.4 µM and the “SI (selectivity index)” value came to 6.9.

`N#CCCCOc1c(-c2ccc(O)c(O)c2)oc2cc(O)cc(O)c2c1=O` [Compound 12d, 4-(2-(3,4-Dihydroxyphenyl)-5,7-dihydroxy-4-oxo-4H-chromen-3-yloxy)butanenitrile] had a melting point of 169 to 171 °C. Further, the CC50 in series [1] is above 50 µM. In series [2], this molecule gave an EC50 above 50 µM.

For the molecule `O=C(Oc1c(-c2ccc(O)c(O)c2)oc2cc(O)cc(O)c2c1=O)c1ccc(Cl)cc1` [Compound 4o, 2-(3,4-Dihydroxyphenyl)-5,7-dihydroxy-4-oxo-4H-chromen-3-yl 4-chlorobenzoate], the melting point lay in the range of 194 to 195 °C. Also, the CC50 in series [1] is above 50 µM. Moreover, in series [2], a half-maximal effect (EC50) was put at 14.3 ± 2.2 µM and the “SI (selectivity index)” value is reported as above 3.5.

For the molecule `O=C(Oc1c(-c2ccc(O)c(O)c2)oc2cc(O)cc(O)c2c1=O)c1cccc(F)c1` [Compound 4f, 2-(3,4-Dihydroxyphenyl)-5,7-dihydroxy-4-oxo-4H-chromen-3-yl 3-fluorobenzoate], the melting point lay within 211 to 213 °C. The same molecule came in with a CC50 in series [1] above 50 µM. Moreover, in series [2], the half-maximal effective concentration (EC50) was determined as 9 ± 4.5 µM and the “SI (selectivity index)” value is on record as above 5.6.

`N#Cc1ccccc1COc1cc(O)c2c(=O)c(O)c(-c3ccc(O)c(O)c3)oc2c1` [Compound 3f, 2-(((2-(3,4-Dihydroxyphenyl)-3,5-dihydroxy-4-oxo-4H-chromen-7-yl)oxy)methyl)benzonitrile] gave a melting point of 248 to 249 °C. Moreover, in series [1], the CC50 is 12.6 ± 0.1 µM. In addition, in series [2], the EC50 stood at 7.5 ± 0.5 µM and the “SI (selectivity index)” value is recorded as 1.7.

For `O=c1c(OCCO)c(-c2ccc(O)c(O)c2)oc2cc(O)cc(O)c12` [Compound 12c, 2-(3,4-Dihydroxyphenyl)-5,7-dihydroxy-3-(2-hydroxyethoxy)-4H-chromen-4-one], the CC50 in series [1] was above 50 µM. Further, in series [2], it took 26.3 ± 3.1 µM to reach a half-maximal effect (EC50) and the “SI (selectivity index)” value is reported as above 1.9.

In the case of `N#Cc1cccc(COc2cc(O)c3c(=O)c(O)c(-c4ccc(O)c(O)c4)oc3c2)c1` [Compound 3l, 3-(((2-(3,4-Dihydroxyphenyl)-3,5-dihydroxy-4-oxo-4H-chromen-7-yl)oxy)methyl)benzonitrile], the CC50 in series [1] (Huh7.5.1 cells, MTT, concentration required to reduce cell proliferation by 50%, average of duplicate determinations, read-out: CC50) turned out to be 10.6 ± 0.5 µM. Also, in series [2], the EC50 was 5.4 ± 0.5 µM and the “SI (selectivity index)” value was determined as 2.0.

In turn, `COc1c(-c2ccc(O)c(O)c2)oc2cc(O)cc(O)c2c1=O` [Compound 12a, 2-(3,4-Dihydroxyphenyl)-5,7-dihydroxy-3-methoxy-4H-chromen-4-one] came in with a 50% cytotoxic concentration (CC50) in series [1] above 50 µM. Also, in series [2], the concentration for a half-maximal effect (EC50) was determined as 11.2 ± 0.1 µM and the “SI (selectivity index)” value was above 4.5.

The values are drawn from publication PMC6272327, “Discovery of Metal Ions Chelator Quercetin Derivatives with Potent Anti-HCV Activities” (Molecules, 2015).
